{"source": "patent US20160312284A1", "about": "“SELECT SINGLE NUCLEOTIDE POLYMORPHISMS PREDICTIVE OF RESPONSE TO GLATIRAMER ACETATE” (Teva Pharmaceutical Industries, Ltd., priority 2015, published 2016)", "key": {"[1]": {"test_system": "RRMS subjects", "settings": "largest controlled study, GA 20 mg; cited from earlier work"}, "[2]": {"test_system": "genotyped patients of the GALA and FORTE cohorts", "test": "Combined GALA and FORTE cohorts: patient responses predicted by preliminary predictive model (model 3, threshold 0.71)", "assay_type": "in vivo, human", "description": "A predictive model was generated based on the 11 SNPs shown in tables 32 and 33 and the two Clinical co-variants shown in table 23.\nReceiver Operating Characteristic (ROC) analysis was performed using the actual value (case or control) and predicted value for each sample from the multi-marker regression model (FIG. 1). For these preliminary analyses, two risk groups were defined using the predicted values from the multi-marker regression model. The predictive threshold value was set at 0.71 (termed “model 3”) based on a variety of factors after consultation with the Teva team and Teva MS clinical experts.\nUltimately, a threshold that best differentiated between responders and non-responders (minimum positive predictive value of 90% or higher) (FIG. 2), while maximizing the number of predicted responders (predicted responders >60%) (FIG. 3) was selected. This threshold also coincided with the lowest p-value of all the thresholds examined (Chi square p-value 6.1×10^−46, odds ratio 19.9) (FIG. 4). The positive predictive value (% of all predicted responders to be true responders) was 91.1%, sensitivity (% of all true responders detected) was 80.2%; specificity (% of all true non-responders classified as non-responders) was 83.1%; and the negative predictive value ([…]) was 65.9%.\nWhile 40% of patients were classified as “predicted non-responders” with an overall response rate of 34% (FIG. 5)."}, "[3]": {"test_system": "Subjects With Relapsing-Remitting Multiple Sclerosis (RRMS)", "test": "GALA phase 3 trial (GA 40 mg three times a week vs placebo): response categories and ARR by predictive model", "assay_type": "in vivo, human", "description": "As used herein, “GALA” is a phase 3 clinical trial entitled “A Study in Subjects With Relapsing-Remitting Multiple Sclerosis (RRMS) to Assess the Efficacy, Safety and Tolerability of Glatiramer Acetate (GA) Injection 40 mg Administered Three Times a Week Compared to Placebo (GALA).” The GALA trial has the ClinicalTrials.gov Identifier NCT01067521, and additional information about the trial can be found at clinicaltrials.gov/ct2/show/NCT01067521.\n(§1) Response definitions were received from patients from two large glatiramer acetate clinical trial cohorts (GALA, FORTE) and patients were categorized as responder, non-responder, extreme-responder, or extreme non-responder according to the criteria set forth in Table 1.\n(§2) To identify genetic markers associated with high response to Copaxone® comprising the following characteristics: (1) high response as measured by ARR reductions, (2) predictive, not prognostic, markers: associated with response only in Copaxone®-treated patients, and not in the placebo group, (3) markers that are confirmed in an independent cohort, and (4) a subset of GALA and FORTE studies' patients with clarly defined response phenotypes (high responders versus low responders) (FIG. 6) Patient DNA samples were genotyped for 4.3 million genetic variants (Illumina HumanOmni5 array).\n(§3) Regression analysis was applied, with the threshold for distinguishing responders from non-responders was selected by analysis of receiver-operator curves. Intermediate responders were genotyped by either Illumina 5M array or focused taqman-based SNP genotyping and Sanger sequencing."}, "[4]": {"test_system": "Relapsing-Remitting Multiple Sclerosis (RR-MS) patients", "test": "FORTE phase 3 trial (two doses of GA): response categories and ARR by predictive model", "assay_type": "in vivo, human", "source_text": "As used herein, “FORTE” is a phase 3 clinical trial entitled “Clinical Trial Comparing Treatment of Relapsing-Remitting Multiple Sclerosis (RR-MS) With Two Doses of Glatiramer Acetate (GA).” The FORTE trial has the ClinicalTrials.gov Identifier NCT00337779 and additional information, including study results can be found at clinicaltrials.gov/ct2/show/NCT00337779.\nas §1, §2, §3"}, "[5]": {"settings": "change in ARR < -1 and new T2 lesions = 0 and relapse free"}, "[6]": {"settings": "change in ARR >= 0 and new T2 lesions >= 1"}, "[7]": {"settings": "change in ARR from previous 2 years < -1"}, "[8]": {"settings": "change in ARR from previous 2 years >= 0"}}}
{"substance": "Glatiramer acetate", "values": [{"measurement": "relapse rate reduced vs placebo", "setting": "[1]", "value": 32, "unit": "%"}, {"measurement": "improvement in response rate, predicted responders vs overall cohort", "setting": "[2]; 68% vs. 91%", "value": 34, "unit": "%"}, {"measurement": "improved response rate, predicted responders vs predicted non-responders", "setting": "[2]; P<10^-40", "value": 2.7, "unit": "fold"}, {"measurement": "ARR reduced (improved), predicted responders vs overall patient cohort", "setting": "[2]; human, in vivo", "value": 60, "unit": "%"}, {"measurement": "nrelapse reduced (improved), predicted responders vs overall patient cohort", "setting": "[2]; human, in vivo", "value": 58, "unit": "%"}, {"measurement": "EDSS progression delayed (improved), predicted responders vs predicted non-responders", "setting": "[2]; p-value 0.00095", "value": 72, "unit": "%"}, {"measurement": "T1 enhancing lesions at month 12 reduced (improved), predicted responders vs predicted non-responders", "setting": "[2]; p-value 0.043", "value": 47, "unit": "%"}, {"measurement": "reduced EDSS progression, predicted responders vs overall cohort", "setting": "[2]; p-value 0.08", "value": 49, "unit": "%"}, {"measurement": "ARR reduced (improved), predicted responders vs predicted non-responders", "setting": "[2]; p-value 2.2×10^-25", "value": 80, "unit": "%"}, {"measurement": "nrelapse reduced (improved), predicted responders vs predicted non-responders", "setting": "[2]; p-value 7.70×10^-32", "value": 78, "unit": "%"}, {"measurement": "overall response rate", "setting": "[2]; predicted non-responders (40% of patients)", "value": 34, "unit": "%"}, {"measurement": "Extreme Responders (% of cohort)", "setting": "[3]; [5]", "value": "(8.5%)"}, {"measurement": "Extreme Non-Responders (% of cohort)", "setting": "[3]; [6]", "value": "(10%)"}, {"measurement": "Responders (% of cohort)", "setting": "[3]; [7]", "value": "(26%)"}, {"measurement": "Non-Responders (% of cohort)", "setting": "[3]; [8]", "value": "(16%)"}, {"measurement": "Extreme Responders (% of cohort)", "setting": "[4]; [5]", "value": "(16%)"}, {"measurement": "Extreme Non-Responders (% of cohort)", "setting": "[4]; [6]", "value": "(6%)"}, {"measurement": "Responders (% of cohort)", "setting": "[4]; [7]", "value": "(36%)"}, {"measurement": "Non-Responders (% of cohort)", "setting": "[4]; [8]", "value": "(11%)"}]}
